Patent publication US20030176483A1, “Topical synergistic microbicide” (priority 2002, published 2003)

Columns and labels:
Vero cells [1] = assay: Cell death seen in the HSV inactivation plaque assays; assay type: cell-based, African green monkey; details: concentration 0.005%
Protocol: HSV G and F strains were diluted to 200 pfu/ml with 5% MEM, respectively. […] Equal volumes of diluted virus and drugs were mixed and incubated at 37° C. water-bath for 1 h. One ml of the mixture was then used to infect confluent Vero cells in 6-well plates at 37° C. for 1 h. After infection, viral inoculum was removed and the cells washed with PBS. The cells were subsequently overlaid with 1.5 ml of 0.5% methylcellullose (diluted from 1% stock with 2×culture medium) for plaque assay.

[2] = test system: HSV-2 thymidine kinase mutant Delta 333; assay: Inactivation of drug-resistant HSV-2 TK mutant, plaque reduction assay; assay type: cell-based, herpes simplex virus; details: 37° C. for 1 h, concentration not given
Vero cells [3] = assay: Cytotoxicity, neutral red uptake assay; assay type: cell-based, African green monkey; details: after 2 days' incubation, data not shown
Protocol: Culture medium was removed from confluent Vero cells in 24-well plates. The cells were then washed once with PBS. […] Cells were incubated at 37° C. for 1 h, 6 h, 2 and 3 days. At each time point, the medium was removed and cells washed with PBS. 500 μl of 0.01% neutral red (in PBS) was added to each well, and the samples were incubated at 37° C. for 30 min. The dye was then removed and the cells washed×2 with 1 ml PBS per well. The dye was extracted by addition of 500 μl of 50% ethanol/1% glacial acetic acid in PBS to each well and incubated at room temperature for 15 min with gentle shaking at 120-150 rpm. 200 μl extracted dye from each well was put into 96-well plate and the absorbance at 550 nm was read on an ELISA reader.

HSV-1 (strain F) = assay: Inactivation of HSV-1 by pre-mixing with drug, plaque reduction assay; assay type: cell-based, herpes simplex virus; details: concentration 0.005%, pre-mixing for 1 h
Protocol: (§1) HSV strains G (HSV-2) and F (HSV-1) were used in the experiments. A HSV susceptible cell line, Vero cells (African green monkey kidney cell), was used in the virus yield reduction assays. The culture medium for Vero cells was 5% minimum essential medium (MEM; GIBCO/BRL) supplemented with 5% fetal bovine serum, 100 U/ml penicillin and 100 μg/ml streptomycin).
(§2) Confluent cells were washed with PBS and subsequently infected with HSV for 1 h at 37° C. After viral inoculum was removed, the infected cells were washed with PBS and overlaid with 0.5% methylcellulose in culture medium. Cells were incubated at 37° C. for 2 days for HSV-2 infection and 3 days for HSV-1. When plaque size was adequate, cells were fixed with 10% formalin for […]. Monolayers were subsequently stained with 0.5% crystal violet for 10 min, and dye was removed by washing with tap water.
(§3) All data were generated from duplicate or triplicate experiments. Effects of compounds at varying concentrations were expressed as % of control (the mean plaque counts in drug treated wells/the mean plaque counts in control wells).
(§4) HSV G and F strains were diluted to 200 pfu/ml with 5% MEM, respectively. […] Equal volumes of diluted virus and drugs were mixed and incubated at 37° C. water-bath for 1 h. One ml of the mixture was then used to infect confluent Vero cells in 6-well plates at 37° C. for 1 h. […]

HSV-2 (strain G) = assay: Inactivation of HSV-2 by pre-mixing with drug, plaque reduction assay; assay type: cell-based, herpes simplex virus; details: concentration 0.005%, pre-mixing for 1 h
Protocol: as §1, §2, §3, §4

## CCCCCCCCCCCCOS(=O)(=O)[O-].[Na+] [SDS]
Vero cells [1]
  cell death: 50%
[2]
  inactivation of delta 333: capable of inactivating
Vero cells [3]
  CC50 (cytotoxic concentration giving 50% of cell death): approximately 0.005%
HSV-1 (strain F)
  inactivation of HSV-1: effective
HSV-2 (strain G)
  inactivation of HSV-2: effective
